The assay concerns the target T1, Human TREX1 enzyme (amino acids 1-242) (Homo sapiens, UniProt Q9NSU2).
T1 construct: Human TREX1 enzyme (amino acids 1-242)
T1 sequence (Q9NSU2 1-242): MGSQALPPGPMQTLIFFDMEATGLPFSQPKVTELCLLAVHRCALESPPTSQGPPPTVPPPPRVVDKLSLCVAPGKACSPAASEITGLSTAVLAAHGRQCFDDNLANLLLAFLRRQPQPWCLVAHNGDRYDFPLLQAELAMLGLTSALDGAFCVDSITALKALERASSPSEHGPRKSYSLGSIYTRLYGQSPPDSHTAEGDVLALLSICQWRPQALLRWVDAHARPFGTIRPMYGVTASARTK
As to the kind of experiment: Human TREX1 enzymatic assay with dsDNA native oligonucleotide (Picogreen fluorescence). In kind it is biochemical. Particulars: 2 mM dithiothreitol in assay buffer; 50 nM dsDNA oligonucleotide; 30 min preincubation at 25° C.; read-out: TREX1/Human + DTT IC50 AVG. The gist of the method:
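TREX1 (0.8–0.16 nM final) preincubated with compound (300 μM–13 nM or 30 μM–1.5 nM, 2% DMSO) 30 min at 25 °C in Tris pH 7.7, 5 mM MgCl2, 2 mM DTT. Annealed dsDNA (50 nM) added for 5–15 min at 25 °C; EDTA quench with Picogreen fluorescence readout.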
For `COc1cc(-c2nc3cccc(NC(C)=O)c3n2C2(C)COC2)c(F)c(O)c1O` [Example 210, N-[2-(2-fluoro-3,4-dihydroxy-5-methoxyphenyl)-1-(3-methyloxetan-3-yl)-1H-1,3-benzodiazol-7-yl]acetamide], the IC50 was in the range of 100 to 1000 nM.

For the molecule `COC(=O)c1ccc2nc(-c3cc(OC)c(O)c(O)c3F)n(C3(C)COC3)c2c1` [Example 211, methyl 2-(2-fluoro-3,4-dihydroxy-5-methoxyphenyl)-1-(3-methyloxetan-3-yl)-1H-benzo[d]imidazole-6-carboxylate], the IC50 was not above 100 nM.

In the case of `CNC(=O)c1ccc2nc(-c3cc(OC)c(O)c(O)c3F)n(C3(C)COC3)c2c1` [Example 212, 2-(2-fluoro-3,4-dihydroxy-5-methoxyphenyl)-N-methyl-1-(3-methyloxetan-3-yl)-1H-benzo[d]imidazole-6-carboxamide], the IC50 was not above 100 nM.

As to `CNC(=O)c1ccc2nc(-c3cc(OC)c(O)c(O)c3C)n(C3(C)COC3)c2c1` [Example 213, 2-(3,4-dihydroxy-5-methoxy-2-methylphenyl)-N-methyl-1-(3-methyloxetan-3-yl)-1H-1,3-benzodiazole-6-carboxamide], the IC50 is not above 100 nM.

For the molecule `CNC(=O)c1cccc2c1nc(-c1cc(OC)c(O)c(O)c1F)n2C1(C)COC1` [Example 214, 2-(2-fluoro-3,4-dihydroxy-5-methoxyphenyl)-N-methyl-1-(3-methyloxetan-3-yl)-1H-1,3-benzodiazole-4-carboxamide], the IC50 lay in the range of 100 to 1000 nM.

For `CCCC(=O)Nc1ccc2c(c1)nc(-c1cc(OC)c(O)c(O)c1F)n2C1(C)COC1` [Example 215, N-(2-(2-fluoro-3,4-dihydroxy-5-methoxyphenyl)-1-(3-methyloxetan-3-yl)-1H-benzo[d]imidazol-5-yl)butyramide], the IC50 is not above 100 nM.

For `COc1cc(-c2nc3ccccc3n2C2(C)COC2)c(C#N)c(O)c1O` [Example 216, 2,3-dihydroxy-4-methoxy-6-[1-(3-methyloxetan-3-yl)-1H-1,3-benzodiazol-2-yl]benzonitrile], the IC50 was in the range of 10000 to 100000 nM.

Take `COc1cc(-c2nc3ccccc3n2C2(C)COC2)c(OC(F)F)c(O)c1O` [Example 217, 3-(difluoromethoxy)-6-methoxy-4-(1-(3-methyloxetan-3-yl)-1H-benzo[d]imidazol-2-yl)benzene-1,2-diol]: the IC50 was 10000 to 100000 nM.

With `CCc1cc2nc(-c3cc(OC)c(O)c(O)c3F)n(C3(C)COC3)c2cn1` [Example 218, 4-[6-ethyl-3-(3-methyloxetan-3-yl)-3H-imidazo[4,5-c]pyridin-2-yl]-3-fluoro-6-methoxybenzene-1,2-diol], the IC50 was not above 100 nM.

Take `COc1cc(-c2nc3cc(C(N)=O)ncc3n2C2(C)COC2)c(F)c(O)c1O` [Example 219, 2-(2-fluoro-3,4-dihydroxy-5-methoxyphenyl)-3-(3-methyloxetan-3-yl)-3H-imidazo[4,5-c]pyridine-6-carboxamide]: the IC50 lay in the range of 100 to 1000 nM.

For `COc1cc(-c2cc3ccccc3n2C2(C)COC2)c(C)c(O)c1O` [Example 220], the IC50 was 100 to 1000 nM.

For the molecule `COc1cc(-c2nc3cc(N4CCC4)ccc3n2C)c(C(F)(F)F)c(O)c1O` [Example 221, 4-(5-(azetidin-1-yl)-1-methyl-1H-benzo[d]imidazol-2-yl)-6-methoxy-3-(trifluoromethyl)benzene-1,2-diol], the IC50 was 1000 to 10000 nM.

Consider `COc1cc(-c2nc3cc(NCc4ccccc4)ccc3n2C2(C)COC2)c(F)c(O)c1O` [Example 222, 4-(5-(benzylamino)-1-(3-methyloxetan-3-yl)-1H-benzo[d]imidazol-2-yl)-3-fluoro-6-methoxybenzene-1,2-diol], for which the IC50 is not above 100 nM.

Turning to `CCNc1ccc2c(c1)nc(-c1cc(OC)c(O)c(O)c1F)n2C1(C)COC1` [Example 223, 4-(5-(ethylamino)-1-(3-methyloxetan-3-yl)-1H-benzo[d]imidazol-2-yl)-3-fluoro-6-methoxybenzene-1,2-diol], the IC50 lay in the range of 100 to 1000 nM.

Regarding `COc1cc(-c2nc3cc(NC(=O)CCO)ccc3n2C2(C)COC2)c(F)c(O)c1O` [Example 224, N-(2-(2-fluoro-3,4-dihydroxy-5-methoxyphenyl)-1-(3-methyloxetan-3-yl)-1H-benzo[d]imidazol-5-yl)-3-hydroxypropanamide], the IC50 was not above 100 nM.

Consider `COc1cc(-c2nc3ccccc3n2C2(C)CCC2)c(C)c(O)c1O` [Example 225, 6-methoxy-3-methyl-4-(1-(1-methylcyclobutyl)-1H-benzo[d]imidazol-2-yl)benzene-1,2-diol], for which the IC50 lay in the range of 1000 to 10000 nM.

Consider `COc1cc(-c2nc3ccccc3n2C(C)C)c(C)c(O)c1O` [Example 226, 4-(1-isopropyl-1H-benzo[d]imidazol-2-yl)-6-methoxy-3-methylbenzene-1,2-diol], for which the IC50 lay in the range of 1000 to 10000 nM.

In the case of `COc1cc(-c2nc3ccccc3n2C(C)(C)C)c(C)c(O)c1O` [Example 227, 4-(1-(tert-butyl)-1H-benzo[d]imidazol-2-yl)-6-methoxy-3-methylbenzene-1,2-diol], the IC50 lay in the range of 100 to 1000 nM.

On to `COc1cc(-c2nc3ccc(S(=O)(=O)N(C)C)cc3n2C2(C)COC2)c(F)c(O)c1O` [Example 228, 2-(2-fluoro-3,4-dihydroxy-5-methoxyphenyl)-N,N-dimethyl-1-(3-methyloxetan-3-yl)-1H-benzo[d]imidazole-6-sulfonamide], for which the IC50 was in the range of 10000 to 100000 nM.

As to `COc1cc(-c2nc3cnccc3n2C2(C)COC2)c(F)c(O)c1O` [Example 229, 3-fluoro-6-methoxy-4-(1-(3-methyloxetan-3-yl)-1H-imidazo[4,5-c]pyridin-2-yl)benzene-1,2-diol], the IC50 lay in the range of 1000 to 10000 nM.

Turning to `COc1cc(-c2nc3ccncc3n2C2(C)COC2)c(F)c(O)c1O` [Example 230, 3-fluoro-6-methoxy-4-[3(3-methyloxetan-3-yl)-3H-imidazo[4,5-c]pyridin-2-yl]benzene-1,2-diol], the IC50 was 100 to 1000 nM.

On to `COc1cc(-c2nc3cc(F)ccc3[nH]2)c(F)c(O)c1O` [Example 231, 3-fluoro-4-(5-fluoro-1H-benzo[d]imidazol-2-yl)-6-methoxybenzene-1,2-diol], for which the IC50 is more than 100000 nM.

As to `COc1cc(-c2nc3ccccc3n2C2(C)COC2)c(F)c(O)c1O` [Example 232, 3-fluoro-6-methoxy-4-(1-(3-methyloxetan-3-yl)-1H-benzo[d]imidazol-2-yl)benzene-1,2-diol], the IC50 lay within 100 to 1000 nM.

As to `Oc1cc(-c2nc3ccccc3n2C2CCC2)cc(OC(F)(F)F)c1O` [Example 233, 5-(1-cyclobutyl-1H-benzo[d]imidazol-2-yl)-3-(trifluoromethoxy)benzene-1,2-diol], the IC50 was more than 100000 nM.

As to `CCOc1cc(-c2nc3ccccc3n2C2CCC2)cc(O)c1O` [Example 234, 5-(1-cyclobutyl-1H-1,3-benzodiazol-2-yl)-3-ethoxybenzene-1,2-diol], the IC50 was 1000 to 10000 nM.

Turning to `COc1cc(-c2nc3cc(N)ccc3n2C2CCC2)c(C)c(O)c1O` [Example 235, 4-(5-amino-1-cyclobutyl-1H-benzo[d]imidazol-2-yl)-6-methoxy-3-methylbenzene-1,2-diol], the IC50 was 100 to 1000 nM.

With `COc1cc(-c2nc3ccc(CNc4ccccc4)cc3n2C2(C)COC2)c(F)c(O)c1O` [Example 236, 3-fluoro-6-methoxy-4-(1-(3-methyloxetan-3-yl)-6-((phenylamino)methyl)-1H-benzo[d]imidazol-2-yl)benzene-1,2-diol], the IC50 lay in the range of 100 to 1000 nM.

Take `COc1cc(-c2nc3cc(NC(C)=O)ncc3n2C2(C)COC2)c(F)c(O)c1O` [Example 237, N-(2-(2-fluoro-3,4-dihydroxy-5-methoxyphenyl)-3-(3-methyloxetan-3-yl)-3H-imidazo[4,5-c]pyridin-6-yl)acetamide]: the IC50 was not above 100 nM.

For `COc1cc(-c2nc3ccc(-c4nnco4)cc3n2C2(C)COC2)c(F)c(O)c1O` [Example 238, 3-fluoro-6-methoxy-4-[1-(3-methyloxetan-3-yl)-6-(1,3,4-oxadiazol-2-yl)-1H-1,3-benzodiazol-2-yl] benzene-1,2-diol], the IC50 is not above 100 nM.

As to `COc1cc(-c2nc3ccccc3n2CC2CCC2)c(C)c(O)c1O` [Example 239, 4-(1-(cyclobutylmethyl)-1H-benzo[d]imidazol-2-yl)-6-methoxy-3-methylbenzene-1,2-diol], the IC50 was more than 100000 nM.

As to `COc1cc(-c2nc3cc(N4CCC4)ccc3[nH]2)c(C2CC2)c(O)c1O` [Example 242, 4-(5-(azetidin-1-yl)-1H-benzo[d]imidazol-2-yl)-3-cyclopropyl-6-methoxybenzene-1,2-diol], the IC50 is more than 100000 nM.

On to `COc1cc(-c2nc3ccc(C(=O)NC(C)(C)C)cc3n2C2(C)COC2)c(F)c(O)c1O` [Example 243, N-tert-butyl-2-(2-fluoro-3,4-dihydroxy-5-methoxyphenyl)-1-(3-methyloxetan-3-yl)-1H-1,3-benzodiazole-6-carboxamide], for which the IC50 fell in the range of 100 to 1000 nM.

Regarding `COc1cc(-c2nc3ccc(C(=O)NCC(F)(F)F)cc3n2C2(C)COC2)c(F)c(O)c1O` [Example 244, 2-(2-fluoro-3,4-dihydroxy-5-methoxyphenyl)-1-(3-methyloxetan-3-yl)-N-(2,2,2-trifluoroethyl)-1H-1,3-benzodiazole-6-carboxamide], the IC50 is not above 100 nM.

As for `COc1cc(-c2nc3ccc(C(=O)N(C)C)cc3n2C2(C)COC2)c(F)c(O)c1O` [Example 245, 2-(2-fluoro-3,4-dihydroxy-5-methoxyphenyl)-N,N-dimethyl-1-(3-methyloxetan-3-yl)-1H-benzo[d]imidazole-6-carboxamide], the IC50 is 1000 to 10000 nM.

(Values after patent US20230234943A1, “TREX1 INHIBITORS AND USES THEREOF” (Tempest Therapeutics, Inc., priority 2020, published 2023).)
